Experimental data taken from US20070167466A1, “"Pyrazolo [4,3-d]pyrimidines, processes for their preparation and methods of use"” (priority 2003, published 2007).
Like-named read-outs stand apart in the source and are kept apart here.

Assays:
[1] = molecular target: T1, CDK1 (p34^cdc2, cyclin B) (Homo sapiens, UniProt P06493); test: CDK inhibition assay, p34^cdc2 kinase, histone H1 phosphorylation; format: biochemical; conditions: 15 μM ATP, histone H1, 30° C.
T1 construct: made in house; host or cells: Sf9 insect cells (baculovirus co-infection)
T1 sequence (P06493 whole entry, species assumed): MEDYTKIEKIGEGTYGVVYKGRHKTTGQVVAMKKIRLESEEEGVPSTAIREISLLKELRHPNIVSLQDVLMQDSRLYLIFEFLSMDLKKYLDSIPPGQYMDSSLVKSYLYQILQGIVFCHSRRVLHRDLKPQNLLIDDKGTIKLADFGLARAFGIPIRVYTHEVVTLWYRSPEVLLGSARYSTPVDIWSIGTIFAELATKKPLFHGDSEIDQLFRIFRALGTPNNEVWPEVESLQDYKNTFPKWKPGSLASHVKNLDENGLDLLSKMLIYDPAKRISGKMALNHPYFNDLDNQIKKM
T1 sequence (P14635 whole entry partner, species assumed): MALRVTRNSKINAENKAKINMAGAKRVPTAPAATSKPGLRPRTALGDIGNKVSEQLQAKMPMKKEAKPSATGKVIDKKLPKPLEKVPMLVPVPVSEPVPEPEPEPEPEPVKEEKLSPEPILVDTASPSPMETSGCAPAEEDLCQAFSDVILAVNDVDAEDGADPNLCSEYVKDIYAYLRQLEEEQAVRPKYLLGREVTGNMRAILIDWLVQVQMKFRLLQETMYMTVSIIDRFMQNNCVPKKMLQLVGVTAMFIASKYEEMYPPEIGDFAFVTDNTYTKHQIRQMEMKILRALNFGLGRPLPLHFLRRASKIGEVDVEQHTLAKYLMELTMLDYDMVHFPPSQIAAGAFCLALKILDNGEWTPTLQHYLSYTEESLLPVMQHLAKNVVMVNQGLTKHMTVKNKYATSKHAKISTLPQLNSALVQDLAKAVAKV
Experimental: The controls contain suitable dilutions of DMSO.
2-glycerolphosphate, 1 mM NaF, 1 mM DTT

[2] = tested on: CDC2a (cdc2a-MS protein, plant Cdc2-kinase); format: biochemical; conditions: enzyme bound to p13^suc1-agarose, histone H1, various concentrations
Experimental: (§1) Enzyme activity bound to p13^suc1-agarose was measured by phosphorylation of histone H1 substrate protein in the presence of various concentrations of (1) 7-furfurylamino-3-methylpyrazolo[4,3-d]pyrimidine, (2) 7-benzylamino-3-isopropylpyrazolo[4,3-d]pyrimidine, (3) 7-(3-chloroanilino)-3-isopropylpyrazolo[4,3-d]pyrimidine, (4) 7-(3-hydroxybenzyl)amino-3-isopropylpyrazolo[4,3-d]pyrimidine.
(§2) The quantification of radioactivity incorporated into histone H1 or myelin basic protein was undertaken using Phosphoimager (original gel images shown on FIG. 1). IC50 were calculated from dose-response curves.

[3] = tested on: K562 (human chronic myeloblastic leukemia); test: In vitro cytotoxic activity, Calcein AM, three days; format: cell-based; conditions: read-out: K-562 IC50
Experimental: (§3) We have been using the following cell lines: HELA (human cervical carcinoma), MCF7 (human breast adenocarcinoma), NIH 3T3 (mouse fibroblasts), HOS (human osteogenic sarcoma), HL 60 (human promyelocytic leukemia), G 361 (human malignant melanoma), K562 (human chronic myeloblastic leukemia), CEM (human lymphoblastoid leukaemia). Tested drugs were added to the cell cultures in six different concentration and kept at 37° C. and 5% CO2 for three days. All cell lines were grown in DMBM medium (Gibco BRL) supplemented with 10% (v/v) fetal bovine serum and L-glutamine and maintained at 37° C. in a humidified atmosphere with 5% CO2. 10^4 cells were seeded into each well of 96 well plate, allowed to stabilize for at least 2 h and then tested compounds were added at various concentrations ranging from 200 to 0.2 μM in triplicates. Three days after drug addition Calcein AM solution (Molecular Probes) was added and let to enter the cells for 1 hour. Fluorescence of viable cells was quantified employing Fluoroskan Ascent (Microsystems).

[4] = tested on: MCF7 (human breast adenocarcinoma); test: as above; format: cell-based
Experimental: as §3

[5] = tested on: Cytokinin-dependent tobacco callus Nicotiana tabacum L. cv. Wisconsins 38; test: Tobacco callus bioassay for cytotoxicity (herbicidal activity); format: cell-based; conditions: Nicotiana tabacum, 672 h, four weeks
Experimental: The compounds to be tested were dissolved in dimethylsulfoxide (DMSO) and the solution brought up to 10^−3 M with distilled water. […] Cytokinin-dependent tobacco callus Nicotiana tabacum L. cv. […] Subcultivation was carried out every three weeks. Fourteen days before the bioassay, the callus tissue was transferred to the media without 6-benzylaminopurine. Compounds were tested with two different concentrations of 6-benzylaminopurine (10^−5 M and 10^−6 M). Inhibitory growth activity was determined from the increase in fresh callus weight after four weeks of cultivation. Five replicates were prepared for each concentration tested and the entire test was repeated at least twice.

[6] = molecular target: CDK2 (p33^cdk2, cyclin E) (Homo sapiens, UniProt P24941); test: CDK inhibition assay, p33^cdk2 kinase, histone H1 phosphorylation;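 further: Baculovirus-expressed kinase/cyclin complex from Sf9 cell extract, 10 min at 30 °C, phosphoproteins separated by SDS gel and quantified by image analysis, activity relative to DMSO control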
Experimental: Cyclin-dependent kinases (p34^cdc2, p33^cdk2) and cyclins (cyclin B, E) are produced in Sf9 insect cells coinfected with appropriate baculoviral constructs. The cells are harvested 68-72 hrs post infection in lysis buffer for 30 min on ice and the soluble fraction is recovered by centrifugation at 14.000 g for 10 min. The protein extract is stored at −80° C.
Lysis buffer: 50mM Tris pH 7.4, 150mM NaCl, 5 mM EDTA, 20 mM NaF, 1% Tween, 1 mM DTT, 0.1 mM PMSF, leupeptine, aprotonine.
To carry out experiments on kinetics under linear conditions, the final point test system for kinase activity measurement is used. The kinase is added to reaction mixture in such a way as to obtain linear activity with respect to the concentration of enzyme and with respect to time.
Kinase activity is determined at 30° C. in the kinase buffer.
Tested compounds are usually dissolved to 100 mM solutions in DMSO, final concentration of DMSO in reaction mixture never exceeds 1%. The controls contain suitable dilutions of DMSO.
After 10 min, addition 3×SDS sample buffer stops the incubations. Phosphorylated proteins are separated electrophoretically using 10% SDS polyacrylamide gel. The measurement of kinase activity is done using digital image analysis.
The kinase activity is expressed as a percentage of maximum activity, the apparent inhibition constants are determined by graphic analysis.
Kinase buffer: 50 mM Hepes pH 7.4, 10 mM MgCl2, 5 mM EGTA, 10 mM

MMK1 protein kinase = MMK1 protein kinase (Vicia faba, UniProt A0AAV1B7B8); test: Plant MMK1 protein kinase inhibition assay; format: biochemical; conditions: plant kinase purified from Vicia faba extracts
Chain of MMK1 protein kinase (A0AAV1B7B8 entry or part of it): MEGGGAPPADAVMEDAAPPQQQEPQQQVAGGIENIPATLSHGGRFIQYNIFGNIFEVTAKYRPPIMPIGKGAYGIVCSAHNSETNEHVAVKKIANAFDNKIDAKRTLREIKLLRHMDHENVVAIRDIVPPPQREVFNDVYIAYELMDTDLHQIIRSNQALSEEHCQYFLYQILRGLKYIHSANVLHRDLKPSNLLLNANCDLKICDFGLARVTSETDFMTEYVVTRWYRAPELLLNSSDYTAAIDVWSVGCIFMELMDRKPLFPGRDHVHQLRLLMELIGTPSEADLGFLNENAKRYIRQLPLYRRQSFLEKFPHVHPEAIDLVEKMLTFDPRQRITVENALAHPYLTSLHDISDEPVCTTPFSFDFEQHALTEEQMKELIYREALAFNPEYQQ
Experimental: Protein extraction and purification of pant CDK by binding to p13^suc1-beads or immunopurification with an antibody specific to the cdc2a-MS protein was carried out as described previously (Bögre et al. 1997, Plant Physiol. 113, 1997, 841-852). The MMK1 protein kinase was purified with a specific antibody from Vicia faba extracts as described by Bögre et al. 1997a, Plant Cell 9, 75-83). Protein kinase activity was measured as described above in Example 19. The quantification of radioactivity incorporated into histone H1 or myelin basic protein was undertaken using Phosphoimager (original gel images shown on FIG. 1). IC50 were calculated from dose-response curves. The drugs inhibited the activity of immunopurified Vicia faba and alfalfa Cdc2-kinase. […] In contrast to the regular bipolar spindle in untreated cell, in drug-treated metaphase cells abnormally short and dense kinetochore microtubule fibres were observed. These microtubules were randomly arranged in the vicinity of the kinetochores and connected the chromosomes. Thus the chromosomes were not aligned on the metaphase plate but were arranged in a circle, with kinetochores pointing inwards and chromosome arms pointing outwards. γ-tubulin, which plays a role in microtubule nucleation, also localised to the centre of the monopolar spindle.

[7] = molecular target: CDC2a (cdc2a-MS protein, plant Cdc2-kinase) (Medicago sativa, UniProt P24923); format: biochemical
Chain of CDC2a (cdc2a-MS protein, plant Cdc2-kinase) (Medicago sativa, UniProt P24923) (P24923 whole entry): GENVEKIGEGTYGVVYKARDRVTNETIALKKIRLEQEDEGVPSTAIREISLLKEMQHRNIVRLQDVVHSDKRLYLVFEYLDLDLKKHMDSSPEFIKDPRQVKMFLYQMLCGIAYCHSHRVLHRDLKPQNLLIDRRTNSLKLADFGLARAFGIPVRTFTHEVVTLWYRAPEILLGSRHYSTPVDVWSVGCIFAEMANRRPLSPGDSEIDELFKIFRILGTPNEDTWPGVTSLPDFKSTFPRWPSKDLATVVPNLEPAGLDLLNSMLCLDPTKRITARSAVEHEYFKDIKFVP
Experimental: as §1, §2

[8] = tested on: root meristem cells of V. faba; test: Antimitotic and apoptotic effects in plant root meristem cells; format: cell-based, Vicia faba; conditions: high doses
[9] = read-out: IC50, growth of tobacco callus, 10^−5 M BAP, 10^−5 M 6-benzylaminopurine
[10] = 10^−6 M 6-benzylaminopurine, read-out: IC50, growth of tobacco callus, 10^−6 M BAP
[11] = read-out: CDK2 IC50, 15 μM ATP, histone H1, 30° C.

inhibition of plant cdc2 kinase activity (FIG. 1) [2]	IC50 [6]	melting point	SMILES	IC50 [1]	IC50 ([3]; Homo sapiens, K562, 72 h)	IC50 ([4]; Homo sapiens, MCF7, 72 h)	IC50 [5, 9]	IC50 [5, 10]	IC50 (MMK1 protein kinase)	IC50 [6, 11]	IC50 [7]	IC50 [3]	IC50 [4]	apoptosis in plant cells [8]
specific inhibition	0.8 µM		CC(C)c1n[nH]c2c(Nc3cccc(Cl)c3)ncnc12 [3-chloroanilino / isopropyl, 7-(3-chloroanilino)-3-isopropylpyrazolo[4,3-d]pyrimidine]	2 µM	12 µM	9 µM	34 µM	8.2 µM						
			Cc1n[nH]c2c(NCc3ccccc3Cl)ncnc12 [2-chlorobenzylamino / methyl]	25 µM					25 µM	24 µM				
			Cc1n[nH]c2c(Nc3cccc(Cl)c3)ncnc12 [3-chloroanilino / methyl]	14 µM					9.6 µM	16 µM	10 µM	35 µM	24 µM	
			CC(C)c1n[nH]c2c(NC3CCCCC3N)ncnc12 (stereo not drawn) [(2-aminocyclohexyl)amino / isopropyl]	> 100 µM					> 100 µM	> 100 µM	> 100 µM	> 167 µM	> 167 µM	
			CC[C@H](CO)Nc1nc(NCc2ccccc2)c2ncn(C(C)C)c2n1 [roscovitine]											induced apoptosis
			Cc1n[nH]c2c(Nc3ccc(N)c(Cl)c3)ncnc12 [3-chloro-4-aminoanilino / methyl]	26 µM					32 µM	28 µM	30 µM			
specific inhibition	16 µM		Cc1n[nH]c2c(NCc3ccco3)ncnc12 [furfurylamino / methyl, 7-furfurylamino-3-methylpyrazolo[4,3-d]pyrimidine]	18 µM	> 167 µM	142 µM								
specific inhibition	0.9 µM		CC(C)c1n[nH]c2c(NCc3cccc(O)c3)ncnc12 [3-hydroxybenzylamino / isopropyl, 7-(3-hydroxybenzylamino)-3-isopropylpyrazolo[4,3-d]pyrimidine]	1.1 µM	132 µM	105 µM								
			CC(C)c1n[nH]c2c(Nc3ccc(Cl)c(C(=O)O)c3)ncnc12 [3-carboxy-4-chloroanilino / isopropyl]	2.8 µM					1.7 µM	2.9 µM	1.6 µM	1 µM	0.4 µM	
specific inhibition	0.5 µM	153 to 154 °C	CC(C)c1n[nH]c2c(NCc3ccccc3)ncnc12 [benzylamino / isopropyl, 7-benzylamino-3-isopropylpyrazolo[4,3-d]pyrimidine]	1.3 µM	72 µM	55 µM	24 µM	6.5 µM						
